Data as given in patent US20100184770A1, “COMPOUNDS” (Glaxo Group Limited, priority 2006, published 2010).

How the values were obtained:
[1] = system: histamine-induced congestion; experiment: Intranasal challenge method: whole body plethysmography; assay type: in vivo, guinea pigs; settings: for inhibition of the response to histamine challenge (PenH AUC): dosed intranasally at 1 mg/ml either 1 hr or 24 hr before histamine challenge
Experimental: Female Dunkin-Hartley guinea pigs 150-250 g are sensitised twice daily for 5 days (week 1) with ovalbumin (OVA) and aluminium hydroxide (Al(OH)3 or Alum) in physiological saline, 25 μl/nostril. Solution is made up at 20 μg/ml OVA, 180 mg/ml Alum. During weeks 2 and 3 animals receive 25 μl/nostril of OVA (5 mg/ml) once daily. During Week 4 guinea pigs will be entered into study but are continually sensitized as per weeks 2 and 3 until the day before dosing with compound or vehicle.
Pretreatment with test compound is performed at various times prior to histamine challenge. Efficacy dose-response curves are determined 1 hr and/or 3 hr after dosing whereas duration of action may be studied up to 7 days post dose. Test compounds are formulated as solutions in 0.9% sterile saline or suspensions in 0.9% sterile saline/tween80.
Guinea pigs were anaesthetised with isoflurane (5%, 2-31/min O2), placed in a supine position, and 25 μl of test compound or vehicle dosed into each nostril using a Gilson pipette. After dosing, animals remain supine for at least 30 seconds during recovery from anaesthesia.
At 30 minutes before the time of histamine challenge, guinea pigs are dosed with atropine sulphate (Sigma A0257, dissolved in saline), 1 mg/kg i.p. Animals are then placed into whole body plethysmograph systems (Buxco® Electronics) where the parameter PenH area under curve (AUC) is recorded as outlined in […], E., SCHWARZE, J., TAKEDA, K., OSHIBA, A., LARSEN, L., IRVIN, C. G. & GELFAND, E. W. (1997) Noninvasive measurement of airway responsiveness in allergic mice using barometric plethysmography. Am. J. Respir. Crit. Care Med. 156, 766-775.
Hamelmann et al. A 10 minute baseline AUC is recorded and if this value is over 1000, the animals are excluded.
After the stipulated pre-dose time has been reached, guinea pigs are re-anaesthetised with isoflurane and dosed with either 10 mM or 15 mM histamine or phosphate-buffered saline (PBS), (25 μl per nostril). On recovery from anaesthesia animals are returned to the individual plethysmograph chambers and 4×10 min consecutive PenH AUC recordings are made. These recordings are summed to give a cumulative AUC over 40 mins post histamine challenge for each animal. Data are analysed using ANOVA with post-hoc Fishers LSD test (general linear models, Statistica®) and finally Hochberg adjustment. Inhibition of histamine-induced congestion is determined by statistically significant differences between the mean responses of compound pre-treated groups compared to the vehicle pre-treated, histamine-challenged group.

[2] = target: T1, human H1 receptor (Homo sapiens, UniProt P35367); experiment: Histamine H1 functional antagonist assay: determination of antagonist duration (washout, FLIPR); assay type: cell-based; settings: at one or more time points after washout
T1 construct: expressed in transfected cells
T1 sequence (P35367 whole entry): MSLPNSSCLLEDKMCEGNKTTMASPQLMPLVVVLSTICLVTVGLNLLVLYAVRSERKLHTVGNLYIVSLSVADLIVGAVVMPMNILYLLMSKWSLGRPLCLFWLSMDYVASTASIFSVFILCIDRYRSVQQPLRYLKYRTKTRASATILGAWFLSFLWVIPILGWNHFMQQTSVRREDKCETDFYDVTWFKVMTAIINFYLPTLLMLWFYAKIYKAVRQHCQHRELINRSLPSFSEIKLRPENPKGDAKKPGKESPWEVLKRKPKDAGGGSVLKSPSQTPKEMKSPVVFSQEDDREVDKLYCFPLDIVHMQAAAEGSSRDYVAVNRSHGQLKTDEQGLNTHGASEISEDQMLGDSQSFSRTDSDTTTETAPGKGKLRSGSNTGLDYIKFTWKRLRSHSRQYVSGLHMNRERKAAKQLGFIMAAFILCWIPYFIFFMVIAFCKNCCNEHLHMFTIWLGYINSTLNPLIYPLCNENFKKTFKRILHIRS
Experimental: (§1) 1. Generation of Histamine H1 Cell Line The human H1 receptor is cloned using known procedures described in the literature [Biochem. Biophys. Res. Commun., 201(2):894 (1994)]. Chinese hamster ovary (CHO) cells stably expressing the human H1 receptor are generated according to known procedures described in the literature [Br. J. Pharmacol., 117(6):1071 (1996)].
To determine the antagonist duration, cells are cultured overnight in non-coated black-walled clear bottom 96-well tissue culture plates, are washed with PBS and are incubated with a concentration of antagonist chosen to give an approximate DR in the range 30-300. Following the 30 min antagonist incubation period, the cells are washed two or three times with 200 μl of PBS and then 100 μl Tyrodes buffer is added to each well to initiate antagonist dissociation. Following incubation for predetermined times, typically 30-270 min at 37° C., the cells are then washed again with 200 μl PBS and are incubated with 100 Tyrodes buffer containing Brilliant Black, probenecid and Fluo-4 for 45 min at 37° C., as described above. After this period, the cells are challenged with histamine in the FLIPR™ as described above. The dose ratio at each time point is used to determine the fractional H1 receptor occupancy by the following equation: fractional receptor occupancy=(DR-1)/DR. The decrease in receptor occupancy over time approximates to a straight line and is analysed by linear regression. The slope of this straight line fit is used as an index of the dissociation rate of the antagonist. The dose ratios for antagonist treated cells and for antagonist treated and washed cells at each time point are used to calculate a relative dose ratio (rel DR) which is also used as an index of antagonist duration. Antagonists with long duration of action produce rel DR values close to 1, and antagonists with short duration of action produce rel DR values that approaches the dose ratio value obtained for antagonist treatment alone.

[3] = target: T1, human H1 receptor; experiment: Histamine H1 functional antagonist assay: determination of functional pKi values (FLIPR); assay type: cell-based; settings: CHO cells expressing human H1 receptor, histamine at EC80, FLIPR, read-out: average pKi (pKb) at H1 (converted)
Experimental: as §1
The histamine H1 cell line is seeded into non-coated black-walled clear bottom 384-well tissue culture plates in alpha minimum essential medium (Gibco/Invitrogen, cat no. 22561-021), supplemented with 10% dialysed foetal calf serum (Gibco/Invitrogen cat no. 12480-021) and 2 mM L-glutamine (Gibco/Invitrogen cat no 25030-024) and is maintained overnight at 5% CO2, 37° C.
Excess medium is removed from each well to leave 10 μl. 30 μl loading dye (250 μM Brilliant Black, 2 μM Fluo-4 diluted in Tyrodes buffer+probenecid (145 mM NaCl, 2.5 mM KCl, 10 mM HEPES, 10 mM D-glucose, 1.2 mM MgCl2, 1.5 mM CaCl2, 2.5 mM probenecid, pH adjusted to 7.40 with NaOH 1.0 M)) is added to each well and the plates are incubated for 60 min at 5% CO2, 37° C.
10 μl of test compound, diluted to the required concentration in Tyrodes buffer+probenecid (or 10 μl Tyrodes buffer+probenecid as a control) is added to each well and the plate is incubated for 30 min at 37° C., 5% CO2. The plates are then placed into a FLIPR™ (Molecular. Devices, UK) to monitor cell fluorescence (λex=488 nm, λEM=540 nm) in the manner described in Sullivan et al., (In: Lambert DG (ed.), Calcium Signaling Protocols, New Jersey: Humana Press, 1999, 125-136) before and after the addition of […] at a concentration that results in the final assay concentration of histamine being EC80.
Functional antagonism is indicated by a suppression of histamine induced increase in fluorescence, as measured by the FLIPR™ system (Molecular Devices). By means of concentration effect curves, functional affinities are determined using standard pharmacological mathematical analysis.

SMILES	inhibition of the response to histamine challenge (PenH AUC), 3 hr timepoint ([1]; another experiment, dosed intranasally at 1 mg/ml and at 10 mg/ml 3 hr before histamine challenge)	inhibition of the response to histamine challenge (PenH AUC), 24 hr timepoint ([1]; another experiment, dosed intranasally at 1 mg/ml and at 10 mg/ml 24 hr before histamine challenge)	inhibition of the response to histamine challenge (PenH AUC) [1]	duration of action compared with azelastine in the histamine H1 functional antagonist assay [2]	Ki [3]
COCCCC(=O)NCCN1CCC[C@@H]1Cn1nc(Cc2ccc(Cl)cc2)c2ccccc2c1=O [Example 34, N-[2-((2R)-2-{[4-[(4-Chlorophenyl)methyl]-1-oxo-2(1H)-phthalazinyl]methyl}-1-pyrrolidinyl)ethyl]-4-(methyloxy)butanamide]	significantly (p<0.05) inhibited the response at the 3 hr timepoint	not the 24 hr timepoint	significantly (p<0.05) inhibited the response at both timepoints		
COCCCC(=O)NCCN1CCC[C@@H]1Cn1nc(Cc2ccc(Cl)cc2)c2ccccc2c1=O.O=C(O)C(F)(F)F [Example 34c, N-[2-((2R)-2-{[4-[(4-Chlorophenyl)methyl]-1-oxo-2(1H)-phthalazinyl]methyl}-1-pyrrolidinyl)ethyl]-4-(methyloxy)butanamide, trifluoroacetate salt]			significantly (p<0.05) inhibited the response at both timepoints		
O=C(CC(F)(F)F)NCCN1CCC[C@@H]1Cn1nc(Cc2ccc(Cl)cc2)c2ccccc2c1=O.O=C(O)C(F)(F)F [Example 36b, N-[2-((2R)-2-{[4-[(4-chlorophenyl)methyl]-1-oxo-2(1H)-phthalazinyl]methyl}-1-pyrrolidinyl)ethyl]-3,3,3-trifluoropropanamide, trifluoroacetate]			significantly (p<0.05) inhibited the response at both timepoints	longer duration of action than azelastine	< 0.0316 µM
COCCCC(=O)NCCN1CCC[C@@H]1Cn1nc(Cc2ccc(Cl)cc2)c2ccccc2c1=O.Cl [Example 34a, N-[2-((2R)-2-{[4-[(4-Chlorophenyl)methyl]-1-oxo-2(1H)-phthalazinyl]methyl}-1-pyrrolidinyl)ethyl]-4-(methyloxy)butanamide, hydrochloride salt]			significantly (p<0.05) inhibited the response at both timepoints		
CN1CCCC(n2nc(Cc3ccc(Cl)cc3)c3ccccc3c2=O)CC1 (stereo not drawn) [azelastine, reference compound]			failed to show a similar duration of action		
